Legend:
melanoma xenografts = settings: oral 10-30 mg/kg daily for 3 wk or 10 mg/kg injected in the tumor; cited from earlier work
HL-60 cells [1] = assay: Viable cell count of leukemic cells in suspension culture (Trypan blue); type: cell-based, human; settings: read-out: concentration required for 50% inhibition of HL-60 cells; PPARγ ligands compared to CDDO
Protocol: Suspension culture of leukemic cells. Leukemic cell lines were cultured at a density of 3.0×10^5 cells/mL, and AML mononuclear cells at 5×10^5 cells/mL in the presence or absence of indicated concentrations of CDDO-Me. Appropriate amounts of DMSO (final concentration<0.05%) was included as a control. For cytotoxicity studies, 1 μM ara-C was added to the cultures.
CDDO. […] The percentage of proliferating cells were analyzed by FCM.
CDDO-Me. […] Mechanism of growth inhibition was analyzed on cell cycle and apoptosis in HL-60 cells.

HL-60 cells [2] = assay: Differentiation by CD11b/CD14 flow cytometry; type: cell-based, human; settings: 7 days, concentration 1 (column head M)
Protocol: Immunophenotyping. The PE-conjugated anti-CD11b, FITC-conjugated anti-CD14 monoclonal antibody (mAb) (Becton Dickinson) and PE-conjugated anti-CD95 mAb (PharMingen) were used at a 1/10 dilution.
Enhancement in cellular differentiation using combinations of CDDO with ATRA were tested. […] Cell differentiation was analyzed by flow cytometry (CD14/CD11b staining). […] These experiments were repeated. […]
Finally, the inventors examined if CDDO-Me combined with ATRA would enhance differentiation. […] […] Next, combined treatment with CDDO-Me and RXR-specific ligand were tested for potentiation of anti-leukemic effects.

D9 cells, vector control = assay: Annexin V / cell number in D9 vector control cells; type: cell-based; settings: 3 μM (CDDO: 5 hrs)
Protocol: (§1) Annexin V staining. Cells were washed in phosphate-buffered saline (PBS) and resuspended in 100 μl of binding buffer containing Annexin V (Roche Diagnostic Corporation, Indianapolis, Ind.). Cells were analyzed by flow cytometry after the addition of propidium iodide (PI). Annexin V binds to those cells that express phosphatidylserine on the outer layer of the cell membrane, and PI stains the cellular DNA of those cells with a compromised cell membrane. This allows for live cells (unstained with either fluorochrome) to be discriminated from apoptotic cells (stained only with annexin V) and necrotic cells (stained with both annexin and PI).
(§2) To characterize the correlation between PPARγ and caspase activation, caspase-3 levels in D9 cells transfected with wt-PPARγ were analyzed. Six different single cell-derived clones were treated with 3 μM CDDO or vehicle controls for 5 hrs. Caspase-3 cleavage was analyzed by Western blot. A decrease in pro-caspase-3 with appearance of the cleaved product was readily observed in all clones. The degree of cleavage was higher in PPARγ-transfected than in vector control cells that express endogenous PPARγ. […] These changes correlated with plasma membrane changes: vector control=47.0% annexin V-positive cells; wt-PPARγ-transfected cells=73.3±1.1% annexin V (+), n=6. […] PPARγ-transfected cells were also more sensitive to PPARγ-ligand 15d-PGJ2 (41.00% vs 16.0% annexin (+) cells at 3 μM).
To characterize the correlation between PPARγ and caspase activation, caspase-3 levels in D9 cells transfected with wt-PPARγ were analyzed. Six different single cell-derived clones were treated with 3 μM CDDO or vehicle controls for 5 hrs. Caspase-3 cleavage was analyzed by Western blot. A decrease in pro-caspase-3 with appearance of the cleaved product was readily observed in all clones. The degree of cleavage was higher in PPARγ-transfected than in vector control cells that express endogenous PPARγ. […] These changes correlated with plasma membrane changes: vector control=47.0% annexin V-positive cells; wt-PPARγ-transfected cells=73.3±1.1% annexin V (+), n=6. […]

[3] = test system: wt-PPARγ-transfected D9 cells; assay: Annexin V / cell number in wt-PPARγ-transfected D9 cells; type: cell-based; settings: 3 μM (CDDO: 5 hrs, n=6)
Protocol: as §1, §2
as §2, with “(41.0%” for “(41.00%”
The sensitivity of leukemic cells that overexpress PPARγ to CDDO-induced killing was tested. Vector control (pcDNA) or wt-PPARγ-transfected D9 cells (2 different clones) were treated 0.2 μM of CDDO for 48 hrs. Cell viability was assessed by cell count after Trypan blue exclusion, and apoptosis determined by PS/annexin V/Propidium Iodide (PI) flow cytometry. Leukemic cells transfected with PPARγ expressed 2.8-3.7-fold higher amounts of protein compared with vector controls. […] Importantly, CDDO increased PPARγ expression in both, vector control and transfected cells. […]

primary AML samples = assay: Annexin V staining of primary AML samples exposed to PPARγ ligands; type: cell-based, human; settings: 72 hrs; 15d-PGJ2 5 μM; BRL49653, L-805645, GW347845X 25 μM
Protocol: as §1

leukemic cell lines = assay: Proliferation of leukemic cell lines (cell count and 3H incorporation); type: cell-based; settings: read-out: IC50, proliferation of leukemic cells
HL-60 cells [4] = settings: 15d-PGJ2 at 3 μM, BRL49653 at 5 μM (Tontonoz et al., 1998); cited from earlier work
HL-60 cells [5] = settings: 15d-PGJ2 at 3 μM, BRL49653 at 5 μM (Tontonoz et al., 1998); cited from earlier work; remark: listed apart in the source
HL-60 cells [6] = assay: Differentiation by CD11b/CD14 flow cytometry; type: cell-based, human; settings: 7 days

For `O=C(O)c1ccc2cc(-c3ccc(O)c(C45CC6CC(CC(C6)C4)C5)c3)ccc2c1` [CD437], the “growth of melanoma xenografts in vivo” value (melanoma xenografts) is listed as “caused growth inhibition of melanoma xenografts”.

For `CCCCC/C=C/C=C1/C(=O)C=C[C@@H]1C/C=C\CCCC(=O)O` [15d-PGJ2, 15-deoxyΔ^12,14PGJ2], the IC50 (HL-60 cells [1]) was 5 µM, the CD11b % (HL-60 cells [2]) was 34.1% and the “annexin V-positive cells” value (D9 cells, vector control) was 16.0%. For the same molecule, the “annexin V (+) cells” value [3] was 41.0%, the annexin-V-positive cells (primary AML samples) was 27.7% and the IC50 (leukemic cell lines) was 5 to 10 µM. For the same molecule, the “killing of HL-60 cells” value (HL-60 cells [4]) was “no killing”, the “monocytic differentiation of HL-60 cells” value (HL-60 cells [5]) was “induce monocytic differentiation” and the CD11b % (HL-60 cells [6]; 10 μM (15d-PGJ2 column head prints M)) was 88.9%. For the same molecule, the CD11b % (HL-60 cells [6]; concentration 3 (column head M)) was 49.4% and the CD11b % (HL-60 cells [6]; concentration 5 (column head M)) was 83.9%.
